Laboratory results from patent publication US6737383B1, “Herbicidal oxadiazolidines” (priority 1999, dated 2004).

How the values were obtained:
wheat = experiment: Test B pre/postemergence wheat; format: in vivo, Triticum aestivum
Procedure, shortened: (§1)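 Response is a visual 0-to-10 score relative to untreated plants, where 0 means no effect and 10 means complete control, taken twelve to sixteen days after application. Treatments went onto soil at planting and onto foliage of 1- to 4-leaf plants, using a surfactant-containing non-phytotoxic solvent.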

duck salad = experiment: Test B flood test duck salad; format: in vivo, Heteranthera limosa
Procedure, shortened: (§2)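 Flood test on plants grown to the 2-leaf stage; treated plants kept in greenhouse twelve to sixteen days, then visually rated against controls on a 0 (no effect) to 10 (complete control) scale.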

bamyardgrass = experiment: Test B flood test barnyardgrass; format: in vivo, Echinochloa crus-galli
Procedure, shortened: as §2

rice = experiment: Test B flood test rice; format: in vivo, Oryza sativa
Procedure, shortened: as §2

morningglory = experiment: Test B pre/postemergence morningglory; format: in vivo, Ipomoea hederacea
Procedure, shortened: as §1

pigweed = experiment: Test B pre/postemergence pigweed; format: in vivo, Amaranthus retroflexus
Procedure, shortened: as §1

smallflower flatsedge = experiment: Test B flood test smallflower flatsedge; format: in vivo, Cyperus difformis
Procedure, shortened: as §2

cocklebur = experiment: Test B pre/postemergence cocklebur; format: in vivo, Xanthium strumarium
Procedure, shortened: as §1

crabgrass = experiment: Test B pre/postemergence crabgrass; format: in vivo, Digitaria sanguinalis
Procedure, shortened: as §1

blackgrass = experiment: Test B pre/postemergence blackgrass; format: in vivo, Alopecurus myosuroides
Procedure, shortened: as §1

soybean = experiment: Test B pre/postemergence soybean; format: in vivo, Glycine max
Procedure, shortened: as §1

surinam grass = experiment: Test B pre/postemergence surinam grass; format: in vivo, Brachiaria decumbens
Procedure, shortened: as §1

corn = experiment: Test B pre/postemergence corn; format: in vivo, Zea mays
Procedure, shortened: as §1

giant foxtail = experiment: Test B pre/postemergence giant foxtail; format: in vivo, Setaria faberii
Procedure, shortened: as §1

wild oat = experiment: Test B pre/postemergence wild oat; format: in vivo, Avena fatua
Procedure, shortened: as §1

rape = experiment: Test B pre/postemergence rape; format: in vivo, Brassica napus
Procedure, shortened: as §1

bedstraw = experiment: Test B pre/postemergence bedstraw; format: in vivo, Galium aparine
Procedure, shortened: as §1

purple nutsedge = experiment: Test B pre/postemergence purple nutsedge; format: in vivo, Cyperus rotundus
Procedure, shortened: as §1

velvetleaf = experiment: Test B pre/postemergence velvetleaf; format: in vivo, Abutilon theophrasti
Procedure, shortened: as §1

sugar beet = experiment: Test B pre/postemergence sugar beet; format: in vivo, Beta vulgaris
Procedure, shortened: as §1

[1] = Preemergence, Rate 62 g/ha, scale of 0 to 10 where 0 is no effect and 10 is complete control
[2] = Preemergence, Rate 250 g/ha, scale of 0 to 10 where 0 is no effect and 10 is complete control
[3] = Preemergence, Rate 500 g/ha, scale of 0 to 10 where 0 is no effect and 10 is complete control
[4] = Rate 125 g/ha, Preemergence, scale of 0 to 10 where 0 is no effect and 10 is complete control
[5] = Rate 500 g/ha, Postemergence, scale 0 to 10, 0 no effect, 10 complete control
[6] = Rate 62 g/ha, headed Pre-emergence (flood test species), scale 0 to 10 (0 no effect, 10 complete control)
[7] = Rate 125 g/ha, Pre-emergence, flood test species, scale 0 to 10 where 0 is no effect and 10 is complete control
[8] = Rate 250 g/ha, Pre-emergence, flood-test species, scale 0 to 10, 0 is no effect, 10 is complete control
[9] = Rate 500 g/ha, Pre-emergence, flood test species, scale 0 to 10 (0 no effect, 10 complete control)
[10] = Rate 62 g/ha, Postemergence, scale of 0 to 10 where 0 is no effect and 10 is complete control
[11] = Rate 125 g/ha, Postemergence, scale 0 to 10

## CC(C)N(C(=O)n1oc(=O)n(CCC2CCCCC2)c1=O)c1ccc(F)cc1 [Compound 257]
wheat; [1]
  Wheat plant response rating: 0
wheat; [2]
  Wheat plant response rating: 0
wheat; [3]
  Plant response rating, Wheat: 4
wheat; [4]
  Wheat plant response rating: 0
wheat; [5]
  Wheat plant response rating: 0
Duck salad; [6]
  Ducksalad plant response rating: 0
Duck salad; [7]
  Ducksalad plant response rating: 0
Duck salad; [8]
  Ducksalad plant response rating: 0
Duck salad; [9]
  Ducksalad plant response rating: 0
bamyardgrass; [6]
  Barnyardgrass plant response rating: 0
bamyardgrass; [7]
  Barnyardgrass plant response rating: 0
bamyardgrass; [8]
  Barnyardgrass plant response rating: 0
bamyardgrass; [9]
  Barnyardgrass plant response rating: 0
rice; [6]
  Rice plant response rating: 0
rice; [7]
  Rice plant response rating: 0
rice; [8]
  Rice plant response rating: 0
rice; [9]
  Rice plant response rating: 0
morningglory; [1]
  Morningglory plant response rating: 0
morningglory; [2]
  Morningglory plant response rating: 2
morningglory; [3]
  Plant response rating, Morningglory: 4
morningglory; [4]
  Morningglory plant response rating: 0
morningglory; Rate 250 g/ha, Postemergence
  Plant response rating (0 to 10; 0 is no effect, 10 is complete control), Morningglory: 8
morningglory; [5]
  Morningglory plant response rating: 8
pigweed; [1]
  Redroot pigweed plant response rating: 0
pigweed; [2]
  Redroot pigweed plant response rating: 0
pigweed; [3]
  Plant response rating, Redroot pigweed: 4
pigweed; [4]
  Redroot pigweed plant response rating: 0
pigweed; Rate 250 g/ha, Postemergence
  Plant response rating (0 to 10; 0 is no effect, 10 is complete control), Redroot pigweed: 4
pigweed; [5]
  Redroot pigweed plant response rating: 6
Smallflower flatsedge; [6]
  S. Flatsedge plant response rating: 0
Smallflower flatsedge; [7]
  S. Flatsedge plant response rating: 0
Smallflower flatsedge; [8]
  S. Flatsedge plant response rating: 0
Smallflower flatsedge; [9]
  S. Flatsedge plant response rating: 0
cocklebur; [1]
  Cocklebur plant response rating: 0
cocklebur; [2]
  Cocklebur plant response rating: 0
cocklebur; [3]
  Plant response rating, Cocklebur: 0
cocklebur; [10]
  Cocklebur plant response rating: 0
cocklebur; [11]
  Cocklebur plant response rating: 0
cocklebur; [4]
  Cocklebur plant response rating: 0
cocklebur; Rate 250 g/ha, Postemergence
  Plant response rating (0 to 10; 0 is no effect, 10 is complete control), Cocklebur: 0
cocklebur; [5]
  Cocklebur plant response rating: 0
crabgrass; [1]
  Crabgrass plant response rating: 0
crabgrass; [2]
  Crabgrass plant response rating: 2
crabgrass; [3]
  Plant response rating, Crabgrass: 5
crabgrass; [4]
  Crabgrass plant response rating: 2
crabgrass; Rate 250 g/ha, Postemergence
  Plant response rating (0 to 10; 0 is no effect, 10 is complete control), Crabgrass: 2
crabgrass; [5]
  Crabgrass plant response rating: 4
blackgrass; [1]
  Blackgrass plant response rating: 0
blackgrass; [2]
  Blackgrass plant response rating: 0
blackgrass; [3]
  Plant response rating, Blackgrass: 0
blackgrass; [10]
  Blackgrass plant response rating: 0
blackgrass; [11]
  Blackgrass plant response rating: 0
blackgrass; [4]
  Blackgrass plant response rating: 0
blackgrass; Rate 250 g/ha, Postemergence
  Plant response rating (0 to 10; 0 is no effect, 10 is complete control), Blackgrass: 1
blackgrass; [5]
  Blackgrass plant response rating: 2
soybean; [1]
  Soybean plant response rating: 0
soybean; [2]
  Soybean plant response rating: 0
soybean; [3]
  Plant response rating, Soybean: 0
soybean; [4]
  Soybean plant response rating: 0
soybean; [5]
  Soybean plant response rating: 4
Surinam grass; [1]
  B. signalgrass plant response rating: 0
Surinam grass; [2]
  B. signalgrass plant response rating: 0
Surinam grass; [3]
  Plant response rating, B. signalgrass: 3
Surinam grass; [10]
  B. signalgrass plant response rating: 0
Surinam grass; Rate 125 g/ha, Postemergence, scale 0 (no effect) to 10 (complete control)
  B. signalgrass plant response rating: 0
Surinam grass; [4]
  B. signalgrass plant response rating: 0
Surinam grass; Rate 250 g/ha, Postemergence
  Plant response rating (0 to 10; 0 is no effect, 10 is complete control), B. signalgrass: 0
Surinam grass; [5]
  B. signalgrass plant response rating: 0
corn; [1]
  Corn plant response rating: 0
corn; [2]
  Corn plant response rating: 0
corn; [3]
  Plant response rating, Corn: 0
corn; [10]
  Corn plant response rating: 0
corn; [11]
  Corn plant response rating: 0
corn; [4]
  Corn plant response rating: 0
corn; Rate 250 g/ha, Postemergence
  Plant response rating (0 to 10; 0 is no effect, 10 is complete control), Corn: 0
corn; [5]
  Corn plant response rating: 0
Giant foxtail; [1]
  Giant foxtail plant response rating: 3
Giant foxtail; [2]
  Giant foxtail plant response rating: 6
Giant foxtail; [3]
  Plant response rating, Giant foxtail: 9
Giant foxtail; [4]
  Giant foxtail plant response rating: 6
Giant foxtail; Rate 250 g/ha, Postemergence
  Plant response rating (0 to 10; 0 is no effect, 10 is complete control), Giant foxtail: 0
Giant foxtail; [5]
  Giant foxtail plant response rating: 2
Wild oat; [1]
  Wild oats plant response rating: 0
Wild oat; [2]
  Wild oats plant response rating: 0
Wild oat; [3]
  Plant response rating, Wild oats: 4
Wild oat; [4]
  Wild oats plant response rating: 0
Wild oat; [5]
  Wild oats plant response rating: 0
rape; [1]
  Rape plant response rating: 0
rape; [2]
  Rape plant response rating: 0
rape; [3]
  Plant response rating, Rape: 0
rape; [4]
  Rape plant response rating: 0
rape; Rate 250 g/ha, Postemergence
  Plant response rating (0 to 10; 0 is no effect, 10 is complete control), Rape: 2
rape; [5]
  Rape plant response rating: 5
bedstraw; [1]
  Bedstraw plant response rating: 0
bedstraw; [2]
  Bedstraw plant response rating: 0
bedstraw; [3]
  Plant response rating, Bedstraw: 0
bedstraw; [10]
  Bedstraw plant response rating: 0
bedstraw; [11]
  Bedstraw plant response rating: 0
bedstraw; [4]
  Bedstraw plant response rating: 0
bedstraw; Rate 250 g/ha, Postemergence
  Plant response rating (0 to 10; 0 is no effect, 10 is complete control), Bedstraw: 0
bedstraw; [5]
  Bedstraw plant response rating: 0
Purple nutsedge; [2]
  Nutsedge plant response rating: 0
Purple nutsedge; [3]
  Plant response rating, Nutsedge: 0
Purple nutsedge; [4]
  Nutsedge plant response rating: 0
Purple nutsedge; Rate 250 g/ha, Postemergence
  Plant response rating (0 to 10; 0 is no effect, 10 is complete control), Nutsedge: 0
Purple nutsedge; [5]
  Nutsedge plant response rating: 0
velvetleaf; [1]
  Velvetleaf plant response rating: 0
velvetleaf; [2]
  Velvetleaf plant response rating: 0
velvetleaf; [3]
  Plant response rating, Velvetleaf: 0
velvetleaf; [4]
  Velvetleaf plant response rating: 0
velvetleaf; [5]
  Velvetleaf plant response rating: 1
Sugar beet; [1]
  Sugarbeets plant response rating: 0
Sugar beet; [2]
  Sugarbeets plant response rating: 0
Sugar beet; [3]
  Plant response rating, Sugarbeets: 0
Sugar beet; [4]
  Sugarbeets plant response rating: 0
Sugar beet; [5]
  Sugarbeets plant response rating: 5
